ChEMBL document CHEMBL1153384, “Synthesis, antimalarial activity, and preclinical pharmacology of a novel series of 4'-fluoro and 4'-chloro analogues of amodiaquine. Identification of a suitable "back-up" compound for N-tert-butyl isoquine” (J Med Chem, 2009)

What was measured:
Heme [1] = experiment: Binding affinity to heme assessed as binding constant for stepwise binding of 2 equivalent of drug to 1 molecule of heme in presence of 40% DMSO by UV-visible spectroscopy
Heme [2] = experiment: Binding affinity to heme assessed as binding constant for stepwise binding of 2 molecules of heme to 1 equivalent of drug in presence of 40% DMSO by UV-visible spectroscopy
[3] = Toxicity in po dosed mouse assessed as drug level causing no observed adverse effects administered as single dose; assay type: organism-based; details: in vivo, read-out: Activity
[4] = Toxicity in po dosed mouse assessed as drug level causing no observed adverse effects administered as once daily for 4 days; assay type: organism-based; details: in vivo, read-out: Activity
Mus musculus [5] = experiment: Toxicity in po dosed mouse assessed as induction of hematological toxicity at drug dose above no observed adverse effects level; assay type: organism-based; details: in vivo
Mus musculus [6] = experiment: Toxicity in po dosed mouse assessed as induction of hepatotoxicity at drug dose above no observed adverse effects level; assay type: organism-based; details: in vivo
Plasmodium falciparum [7] = experiment: Antimalarial activity against chloroquine-resistant Plasmodium falciparum TM6; assay type: functional, organism-based
Plasmodium falciparum [8] = experiment: Antimalarial activity against chloroquine-sensitive Plasmodium falciparum 3D7; assay type: functional, organism-based
Plasmodium falciparum [9] = experiment: Antimalarial activity against chloroquine-sensitive Plasmodium falciparum HB3; assay type: functional, organism-based
[10] = Partition coefficient, log P of the compound; assay type: physicochemical; details: octanol/water
[11] = molecular target: β-hematin formation (no protein target); experiment: Inhibition of beta-hematin formation as molar equivalent relative to hemin causing blockade in BHIA
Plasmodium yoelii [12] = experiment: Antimalarial activity as reduced parasitaemia against Plasmodium yoelii 17X infected CD1 mice (Mus musculus) perorally dosed daily for 4 days; assay type: functional; details: po, 96 h
[13] = Oral bioavailability in mouse; assay type: ADME, organism-based; details: in vivo
Plasmodium yoelii [14] = experiment: Antimalarial activity as minimal concentration for parasite elimination at day 23 against Plasmodium yoelii 17X intravenously inoculated CD1 mice (Mus musculus) dosed 1 hrs post infection then daily for 4 days
[15] = Clearance in iv dosed mouse; assay type: ADME, organism-based; details: in vivo
[16] = Oral bioavailability in rat; assay type: ADME, organism-based; details: in vivo
[17] = Clearance in iv dosed rat; assay type: ADME, organism-based; details: in vivo
Heme [18] = system: Heme
Heme [19] = system: Heme; remark: listed apart in the source
Mus musculus [20] = experiment: Toxicity in po dosed mouse assessed as maximal nonlethal dose administered as single dose; assay type: organism-based; details: in vivo
[21] = Toxicity against Wistar rat hepatocytes after 6 hrs by trypan blue exclusion method; assay type: cell-based, Hepatocyte; details: read-out: TC50
[22] = Distribution coefficient, log D at pH 7.4; details: octanol/water
Cytochrome P450 3A4 [23] = molecular target: T1, Cytochrome P450 3A4 (Homo sapiens, UniProt P08684); experiment: Inhibition of human CYP3A4 using DEF substrate; assay type: ADME
Cytochrome P450 3A4 [24] = molecular target: T1, Cytochrome P450 3A4; experiment: Inhibition of human CYP3A4 using PPR substrate; assay type: ADME; details: read-out: IC50
Plasmodium falciparum [25] = experiment: Antimalarial activity against chloroquine-resistant Plasmodium falciparum J164; assay type: functional, organism-based
Plasmodium yoelii [26] = experiment: In vivo antimalarial activity against Plasmodium yoelii NS peroral dosage; assay type: functional; details: po
Plasmodium falciparum [27] = experiment: Antimalarial activity against chloroquine-resistant Plasmodium falciparum V1/S; assay type: functional, organism-based; details: V1S

T1 sequence (P08684 whole entry): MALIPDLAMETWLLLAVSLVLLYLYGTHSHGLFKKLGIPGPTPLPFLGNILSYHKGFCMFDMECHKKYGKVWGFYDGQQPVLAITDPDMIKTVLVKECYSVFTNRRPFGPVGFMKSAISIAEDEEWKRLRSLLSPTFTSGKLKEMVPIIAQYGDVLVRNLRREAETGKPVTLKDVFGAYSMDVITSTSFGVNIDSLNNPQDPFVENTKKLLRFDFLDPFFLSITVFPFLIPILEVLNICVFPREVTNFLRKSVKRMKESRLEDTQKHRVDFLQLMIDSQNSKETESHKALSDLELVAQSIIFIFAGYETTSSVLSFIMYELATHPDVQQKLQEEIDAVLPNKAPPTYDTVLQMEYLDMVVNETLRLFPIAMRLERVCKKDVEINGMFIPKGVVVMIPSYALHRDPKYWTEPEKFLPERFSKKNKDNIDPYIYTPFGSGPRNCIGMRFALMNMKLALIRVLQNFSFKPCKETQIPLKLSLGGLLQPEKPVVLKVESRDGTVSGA

## OC(c1cc(C(F)(F)F)nc2c(C(F)(F)F)cccc12)C1CCCCN1 (stereo not given)
Heme [1]
  log Ks: 3.84
Heme [2]
  log Ks: 3.17

## CCN(CC)CCCC(C)Nc1ccnc2cc(Cl)ccc12 (stereo not given) [CHLOROQUINE]
[3]
  NOAEL: 300 mg/kg
[4]
  NOAEL at 96 h: 300 mg/kg
Mus musculus [5]
  Activity: Toxic
Mus musculus [6]
  Activity: Toxic

## CCN(CC)Cc1cc(Nc2ccnc3cc(Cl)ccc23)ccc1Cl
Plasmodium falciparum [7]
  IC50: 10.2 nM
Plasmodium falciparum [8]
  IC50: 30.4 nM
Plasmodium falciparum [9]
  IC50: 12.3 nM

## CN1CCN(Cc2cc(Nc3ccnc4cc(Cl)ccc34)ccc2F)CC1
Plasmodium falciparum [8]
  IC50: 35.1 nM

## CC(C)N1CCN(Cc2cc(Nc3ccnc4cc(Cl)ccc34)ccc2Cl)CC1
[10]
  logP: 5.14
[11]
  IC50: 1.66 molar ratio
Plasmodium falciparum [7]
  IC50: 6.4 nM
Plasmodium falciparum [9]
  IC50: 9.1 nM

## CCNCc1ccc(Nc2ccnc3cc(Cl)ccc23)cc1O [DESETHYL ISOQUINE]
Plasmodium yoelii [12]
  ED50: 5.5 mg/kg
  ED90: 8 mg/kg
[13]
  bioavailability: 100%
Plasmodium yoelii [14]
  Activity: >40 mg/kg
[15]
  clearance: 43.5 mL/min/kg
[16]
  bioavailability: 60%
[17]
  clearance: 61.5 mL/min/kg

## Fc1ccc(Nc2ccnc3cc(Cl)ccc23)cc1CN1CCOCC1
Plasmodium falciparum [8]
  IC50: 551 nM

## c1ccncc1
Heme [1]
  log Ks: 2.5
Heme [2]
  log Ks: 0.18
Heme [18]
  log Ks: 2.54
Heme [19]
  log Ks: 2.24

## O=C(NCc1cc([N+](=O)[O-])ccc1F)c1ncc[nH]1
Plasmodium falciparum [7]
  IC50: 5 nM
Plasmodium falciparum [9]
  IC50: 10.1 nM

## CN1CCN(Cc2cc(Nc3ccnc4cc(Cl)ccc34)ccc2Cl)CC1
Plasmodium falciparum [7]
  IC50: 24.4 nM
Plasmodium falciparum [8]
  IC50: 86.8 nM
Plasmodium falciparum [9]
  IC50: 54.5 nM

## CCN(CC)Cc1cc(Nc2ccnc3cc(Cl)ccc23)ccc1O.Cl
Mus musculus [20]
  Activity: > 500 mg/kg
Heme [1]
  log Ks: 4.4
[21]
  CC50 at 6 h: 78000 nM
[3]
  NOAEL: 100 mg/kg
[10]
  logP: 4.37
[22]
  logD: 3.08
Plasmodium falciparum [7]
  IC50: 7.2 nM
[4]
  NOAEL at 96 h: 100 mg/kg
Mus musculus [5]
  Activity: Toxic
Cytochrome P450 3A4 [23]
  IC50: 28000 nM
Cytochrome P450 3A4 [24]
  IC50: > 100000 nM
Heme [2]
  log Ks: 6.2
Mus musculus [6]
  Activity: Toxic
Plasmodium falciparum [25]
  IC50: 18.5 nM
Plasmodium yoelii [26]
  ED50: 7.4 mg/kg
Plasmodium falciparum [27]
  IC50: 8.9 nM
Plasmodium falciparum [9]
  IC50: 5.5 nM

## Fc1ccc(Nc2ccnc3cc(Cl)ccc23)cc1Cn1ccnc1
[11]
  IC50: 1.78 molar ratio
Plasmodium falciparum [8]
  IC50: 27.2 nM

## CC(C)(C)NCc1ccc(Nc2ccnc3cc(Cl)ccc23)cc1O
Plasmodium falciparum [8]
  IC50: 6 nM

## Clc1ccc2c(Nc3cccc(Cn4ccnc4)c3)ccnc2c1
[11]
  IC50: 2.65 molar ratio

## Clc1ccc2c(Nc3ccc(Cl)c(CN4CCN(c5ccccn5)CC4)c3)ccnc2c1
Plasmodium falciparum [7]
  IC50: 500 nM
Plasmodium falciparum [8]
  IC50: 27.2 nM
Plasmodium falciparum [9]
  IC50: 485 nM
